# Source: ChEMBL document CHEMBL1201862, “PubChem BioAssay data set” (2004)
# The source made the active and inactive calls.
# What was measured:
# [1] = target: DNA dC->dU-editing enzyme APOBEC-3G (Homo sapiens, UniProt Q9HC16); experiment: Dose Response confirmation of small molecule APOBEC3G DNA Deaminase Inhibitors via a fluorescence-based single-stranded DNA deaminase assay. [Related pubchem assays (depositor defined):AID493012, AID493028]; assay type: functional
# [2] = target: DNA dC->dU-editing enzyme APOBEC-3A (Homo sapiens, UniProt P31941); experiment: APOBEC3A DNA deaminase inhibitors, dose response, biochemical (AID 504722); assay type: functional
# Sequence of DNA dC->dU-editing enzyme APOBEC-3A (P31941 whole entry): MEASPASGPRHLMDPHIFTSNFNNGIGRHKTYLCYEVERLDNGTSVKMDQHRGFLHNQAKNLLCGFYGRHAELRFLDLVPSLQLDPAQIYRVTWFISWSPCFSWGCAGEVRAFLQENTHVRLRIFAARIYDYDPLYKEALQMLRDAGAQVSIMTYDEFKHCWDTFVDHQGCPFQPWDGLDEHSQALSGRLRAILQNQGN
# [3] = HeLa cell cytotoxicity, dose response, cytotoxicity control for MgcRacGAP inhibitor project (AID 624300); assay type: functional
# HeLa = experiment: HeLa cell cytotoxicity, dose response, cytotoxicity control, 24 h, cherry-picked samples (AID 504726); assay type: functional, cell-based; settings: Homo sapiens;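 further: potency for cytotoxicity as loss of luminescence signal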
# HEK293 = experiment: HEK cell cytotoxicity by LDH release, dose response, cytotoxicity control for IDE activator project, fluorescence, HEK cells (AID 588440); assay type: functional, cell-based, Homo sapiens; settings: hek293;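 further: cytotoxicity by LDH release measuring loss of membrane integrity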
# Insulin-degrading enzyme [4] = target: T1, Insulin-degrading enzyme (Homo sapiens, UniProt P14735); experiment: activators of recombinant IDE enzyme, dose response, counter-screen for IDE activator project, biochemical, fluorescence polarization (AID 588681)
# T1 sequence (P14735 whole entry): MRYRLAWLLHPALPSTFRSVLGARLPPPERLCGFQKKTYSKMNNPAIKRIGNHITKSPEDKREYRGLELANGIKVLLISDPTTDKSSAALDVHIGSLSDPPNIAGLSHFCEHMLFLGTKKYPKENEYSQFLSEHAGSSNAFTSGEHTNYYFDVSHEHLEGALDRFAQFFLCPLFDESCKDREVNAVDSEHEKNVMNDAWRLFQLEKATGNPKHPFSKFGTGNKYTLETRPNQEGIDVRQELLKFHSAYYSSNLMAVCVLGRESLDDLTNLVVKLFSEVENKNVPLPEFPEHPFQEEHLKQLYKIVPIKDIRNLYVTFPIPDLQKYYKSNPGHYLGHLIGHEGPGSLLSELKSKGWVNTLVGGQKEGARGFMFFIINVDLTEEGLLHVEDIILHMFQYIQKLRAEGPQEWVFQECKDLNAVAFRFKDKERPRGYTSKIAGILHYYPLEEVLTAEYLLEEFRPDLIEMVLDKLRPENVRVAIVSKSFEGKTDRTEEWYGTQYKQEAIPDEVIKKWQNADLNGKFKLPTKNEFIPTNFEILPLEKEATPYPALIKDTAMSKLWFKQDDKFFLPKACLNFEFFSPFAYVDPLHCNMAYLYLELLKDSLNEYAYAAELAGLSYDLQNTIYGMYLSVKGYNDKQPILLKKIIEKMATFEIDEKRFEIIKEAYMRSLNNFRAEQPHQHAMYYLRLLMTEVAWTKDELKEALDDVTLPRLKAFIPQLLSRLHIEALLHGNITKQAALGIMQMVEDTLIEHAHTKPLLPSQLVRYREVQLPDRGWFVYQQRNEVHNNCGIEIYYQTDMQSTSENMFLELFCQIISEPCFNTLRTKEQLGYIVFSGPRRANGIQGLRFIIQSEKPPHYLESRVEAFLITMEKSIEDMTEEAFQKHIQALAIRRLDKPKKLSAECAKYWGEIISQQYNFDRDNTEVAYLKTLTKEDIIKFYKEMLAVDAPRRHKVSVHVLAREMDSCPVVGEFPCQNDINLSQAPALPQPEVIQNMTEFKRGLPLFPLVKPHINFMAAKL
# Insulin-degrading enzyme [5] = target: T1, Insulin-degrading enzyme; experiment: activators of endogenous IDE in HEK cells, dose response, cell-based, fluorescence polarization (AID 588439); assay type: functional
# [6] = target: T2, Rac GTPase-activating protein 1 (Homo sapiens, UniProt Q9H0H5); experiment: MgcRacGAP GTPase-activating activity inhibitors, confirmation, biochemical, ADP Hunter fluorescence, primary and confirmatory (AID 624330); assay type: functional
# T2 sequence (Q9H0H5 whole entry): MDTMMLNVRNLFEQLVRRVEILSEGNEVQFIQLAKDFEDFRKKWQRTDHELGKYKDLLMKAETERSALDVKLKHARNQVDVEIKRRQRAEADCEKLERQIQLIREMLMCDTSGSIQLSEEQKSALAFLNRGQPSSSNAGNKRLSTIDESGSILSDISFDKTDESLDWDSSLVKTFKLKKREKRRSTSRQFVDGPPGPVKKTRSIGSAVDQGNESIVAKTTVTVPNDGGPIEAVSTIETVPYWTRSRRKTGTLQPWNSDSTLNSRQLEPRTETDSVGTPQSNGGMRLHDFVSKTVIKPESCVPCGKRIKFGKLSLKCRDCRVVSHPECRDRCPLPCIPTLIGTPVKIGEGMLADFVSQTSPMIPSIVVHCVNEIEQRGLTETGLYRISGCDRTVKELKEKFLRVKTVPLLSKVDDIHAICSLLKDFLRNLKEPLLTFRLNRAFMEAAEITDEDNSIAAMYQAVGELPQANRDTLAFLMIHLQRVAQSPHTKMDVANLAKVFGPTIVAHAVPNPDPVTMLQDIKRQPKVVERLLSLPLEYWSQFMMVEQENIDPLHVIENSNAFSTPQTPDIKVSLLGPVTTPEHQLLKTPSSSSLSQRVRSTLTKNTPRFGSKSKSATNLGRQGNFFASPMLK
# ORF 73 = ORF 73 (Human herpesvirus 8, UniProt O40947); experiment: inhibitors of C-LANA binding to LBS DNA, dose response, biochemical, fluorescence polarization, cherry-picked samples (AID 504725); design: species or system Human gammaherpesvirus 8;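 further: fluorescence polarization of a labeled DNA duplex reporting LANA DNA binding; potency is for inhibitors that block LANA binding to the DNA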
# Sequence of ORF 73 (O40947 whole entry): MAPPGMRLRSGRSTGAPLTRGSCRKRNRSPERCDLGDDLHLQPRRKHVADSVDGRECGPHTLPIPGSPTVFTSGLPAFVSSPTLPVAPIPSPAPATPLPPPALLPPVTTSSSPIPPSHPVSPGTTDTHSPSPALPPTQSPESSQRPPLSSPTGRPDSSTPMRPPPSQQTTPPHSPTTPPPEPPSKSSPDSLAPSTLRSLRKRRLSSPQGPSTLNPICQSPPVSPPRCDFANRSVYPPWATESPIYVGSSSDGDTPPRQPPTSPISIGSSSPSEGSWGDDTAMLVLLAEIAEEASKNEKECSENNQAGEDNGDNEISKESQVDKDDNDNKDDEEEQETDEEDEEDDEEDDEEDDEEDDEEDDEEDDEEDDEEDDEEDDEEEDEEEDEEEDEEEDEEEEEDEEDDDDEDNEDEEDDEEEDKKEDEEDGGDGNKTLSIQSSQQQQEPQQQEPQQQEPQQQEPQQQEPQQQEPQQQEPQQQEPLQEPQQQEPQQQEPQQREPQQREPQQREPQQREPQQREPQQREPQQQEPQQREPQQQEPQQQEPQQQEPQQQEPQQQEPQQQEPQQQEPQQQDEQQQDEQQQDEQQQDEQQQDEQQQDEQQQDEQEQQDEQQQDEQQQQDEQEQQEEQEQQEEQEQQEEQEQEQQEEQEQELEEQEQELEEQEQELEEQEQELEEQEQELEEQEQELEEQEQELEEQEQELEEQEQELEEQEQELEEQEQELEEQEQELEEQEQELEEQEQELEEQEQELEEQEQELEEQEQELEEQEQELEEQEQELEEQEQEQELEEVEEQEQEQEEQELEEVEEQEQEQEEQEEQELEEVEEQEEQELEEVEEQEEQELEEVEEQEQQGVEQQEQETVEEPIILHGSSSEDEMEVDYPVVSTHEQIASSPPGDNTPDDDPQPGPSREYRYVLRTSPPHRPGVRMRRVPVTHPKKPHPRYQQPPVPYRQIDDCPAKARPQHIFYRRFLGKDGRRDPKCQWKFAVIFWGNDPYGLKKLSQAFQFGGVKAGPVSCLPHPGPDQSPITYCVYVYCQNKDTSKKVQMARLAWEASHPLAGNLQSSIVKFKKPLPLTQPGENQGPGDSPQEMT
# [7] = human group III sPLA2 inhibitors, dose response, biochemical, QFRET, IC50 (AID 743457);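 further: green fluorescence rise as the enzyme cleaves BODIPY PC-A2 in liposomes; potency for inhibition of the enzyme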
# [8] = THP-1 cell cytotoxicity, dose response, cytotoxicity control for non-replicating M. tuberculosis project (AID 489025); assay type: functional
# [9] = HepG2 cell cytotoxicity, dose response, cytotoxicity control for non-replicating M. tuberculosis project (AID 489018); assay type: functional; settings: Mycobacterium tuberculosis
# [10] = Counterscreen for AddAB inhibitors: absorbance-based bacterial cell-based high throughput dose response assay for inhibitors of bacterial viability. [Related pubchem assays (depositor defined):AID435030, AID449728, AID449731, AID488942, AID488955, AID488956]; assay type: functional
# [11] = inhibitors of intracellular T. cruzi replication, confirmation, NIH3T3 host cells, beta-gal luminescence (AID 2044); assay type: functional, cell-based;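 further: intracellular parasites grown in NIH/3T3 mouse fibroblasts as host cells; luminescent beta-galactosidase reporter signal from transgenic T. cruzi replicating inside host cells; inhibitors lower the luminescence signal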
# [12] = Vero E6 cell cytotoxicity, dose response, cytotoxicity control for non-replicating M. tuberculosis project, secondary assay (AID 492998); assay type: functional, VeroE6; settings: Vero C1008
# Exodeoxyribonuclease V = target: T3, Exodeoxyribonuclease V (Escherichia coli (strain K12), UniProt P04993+P07648+P08394); experiment: E. coli RecBCD inhibitors, dose response, counter-screen for AddAB inhibitor project, absorbance, V66 E. coli, mutant T4 phage (AID 492957); assay type: functional, cell-based, Escherichia coli str. K-12 substr. MG1655
# T3 sequence (P04993 whole entry): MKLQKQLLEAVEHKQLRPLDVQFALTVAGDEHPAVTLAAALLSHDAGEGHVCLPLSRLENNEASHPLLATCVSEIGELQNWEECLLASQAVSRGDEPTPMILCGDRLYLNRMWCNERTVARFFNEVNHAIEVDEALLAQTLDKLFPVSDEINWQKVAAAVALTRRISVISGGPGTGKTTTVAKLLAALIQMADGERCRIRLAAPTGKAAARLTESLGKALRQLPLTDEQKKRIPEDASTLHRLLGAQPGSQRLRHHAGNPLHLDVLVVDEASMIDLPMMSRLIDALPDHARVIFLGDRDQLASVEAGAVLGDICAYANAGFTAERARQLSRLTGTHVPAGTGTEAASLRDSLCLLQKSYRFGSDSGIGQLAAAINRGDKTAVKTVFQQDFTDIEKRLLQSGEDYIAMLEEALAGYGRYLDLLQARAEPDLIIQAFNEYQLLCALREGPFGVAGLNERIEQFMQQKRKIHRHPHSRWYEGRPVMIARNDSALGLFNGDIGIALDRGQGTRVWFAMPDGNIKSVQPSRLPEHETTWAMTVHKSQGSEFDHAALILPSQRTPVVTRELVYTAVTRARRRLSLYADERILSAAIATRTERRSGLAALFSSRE
# T3 sequence (P07648 whole entry): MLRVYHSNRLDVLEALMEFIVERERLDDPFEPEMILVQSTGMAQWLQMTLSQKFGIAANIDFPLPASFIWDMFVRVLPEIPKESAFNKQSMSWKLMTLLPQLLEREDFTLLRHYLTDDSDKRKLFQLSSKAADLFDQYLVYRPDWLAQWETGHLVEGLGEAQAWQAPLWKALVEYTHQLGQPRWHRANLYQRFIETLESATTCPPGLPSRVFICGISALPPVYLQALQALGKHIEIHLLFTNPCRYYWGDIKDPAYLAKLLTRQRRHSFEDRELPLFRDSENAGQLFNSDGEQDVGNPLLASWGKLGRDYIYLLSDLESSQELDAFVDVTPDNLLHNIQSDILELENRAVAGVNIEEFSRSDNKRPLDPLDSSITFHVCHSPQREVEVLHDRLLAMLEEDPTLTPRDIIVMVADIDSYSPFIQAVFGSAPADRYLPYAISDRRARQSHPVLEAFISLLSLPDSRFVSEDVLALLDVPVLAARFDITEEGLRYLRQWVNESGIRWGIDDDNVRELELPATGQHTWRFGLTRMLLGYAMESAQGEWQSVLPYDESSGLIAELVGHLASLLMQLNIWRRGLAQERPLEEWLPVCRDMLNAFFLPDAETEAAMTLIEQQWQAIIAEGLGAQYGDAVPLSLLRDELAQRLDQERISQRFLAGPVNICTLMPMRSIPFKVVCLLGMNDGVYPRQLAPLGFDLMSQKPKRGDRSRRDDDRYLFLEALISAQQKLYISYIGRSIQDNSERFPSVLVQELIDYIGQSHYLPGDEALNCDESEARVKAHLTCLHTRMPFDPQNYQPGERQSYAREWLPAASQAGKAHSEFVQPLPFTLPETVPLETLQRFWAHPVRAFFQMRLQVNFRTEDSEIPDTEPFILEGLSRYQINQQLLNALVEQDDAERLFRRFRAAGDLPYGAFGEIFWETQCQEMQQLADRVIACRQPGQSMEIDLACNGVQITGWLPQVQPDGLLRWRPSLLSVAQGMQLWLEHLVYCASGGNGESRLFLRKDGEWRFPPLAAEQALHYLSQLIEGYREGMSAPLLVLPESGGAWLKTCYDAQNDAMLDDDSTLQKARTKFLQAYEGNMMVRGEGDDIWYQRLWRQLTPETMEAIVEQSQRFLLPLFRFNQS
# T3 sequence (P08394 whole entry): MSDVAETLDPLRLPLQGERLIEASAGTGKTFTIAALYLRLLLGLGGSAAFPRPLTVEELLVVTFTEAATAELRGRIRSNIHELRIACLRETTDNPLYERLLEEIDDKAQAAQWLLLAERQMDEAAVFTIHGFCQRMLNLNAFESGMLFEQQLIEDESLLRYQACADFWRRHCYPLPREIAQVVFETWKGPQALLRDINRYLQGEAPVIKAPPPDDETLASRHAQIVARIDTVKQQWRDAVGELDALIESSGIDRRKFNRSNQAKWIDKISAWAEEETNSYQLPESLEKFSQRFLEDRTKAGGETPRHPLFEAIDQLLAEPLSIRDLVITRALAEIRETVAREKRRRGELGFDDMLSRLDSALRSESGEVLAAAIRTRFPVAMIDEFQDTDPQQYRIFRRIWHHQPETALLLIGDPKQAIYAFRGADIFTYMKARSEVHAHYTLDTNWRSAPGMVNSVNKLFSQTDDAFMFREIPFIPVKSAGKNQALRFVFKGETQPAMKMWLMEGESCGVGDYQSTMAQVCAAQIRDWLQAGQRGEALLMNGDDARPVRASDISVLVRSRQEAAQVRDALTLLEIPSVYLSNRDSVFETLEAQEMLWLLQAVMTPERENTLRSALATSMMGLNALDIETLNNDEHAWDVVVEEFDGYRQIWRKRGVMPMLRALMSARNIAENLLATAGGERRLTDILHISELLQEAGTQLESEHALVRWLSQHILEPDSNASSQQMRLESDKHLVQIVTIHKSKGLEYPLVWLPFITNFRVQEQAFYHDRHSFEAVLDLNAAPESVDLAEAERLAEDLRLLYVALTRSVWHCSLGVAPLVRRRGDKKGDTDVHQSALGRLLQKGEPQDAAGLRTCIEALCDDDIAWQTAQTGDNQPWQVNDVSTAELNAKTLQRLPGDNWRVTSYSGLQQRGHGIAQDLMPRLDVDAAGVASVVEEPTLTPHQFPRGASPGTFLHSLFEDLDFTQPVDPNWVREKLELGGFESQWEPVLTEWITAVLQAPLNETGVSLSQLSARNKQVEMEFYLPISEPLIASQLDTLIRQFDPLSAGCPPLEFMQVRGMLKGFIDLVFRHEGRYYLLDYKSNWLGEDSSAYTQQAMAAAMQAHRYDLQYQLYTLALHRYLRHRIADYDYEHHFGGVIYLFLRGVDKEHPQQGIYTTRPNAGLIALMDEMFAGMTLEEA
# [13] = cytotoxicity toward NIH3T3 fibroblasts, dose response, counter-screen, cell-based, ATP luminescence, mouse fibroblasts (AID 2010); assay type: functional;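 further: cells exposed to compound for about 90 hours before reading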
# [14] = target: G-protein coupled receptor 55 (Homo sapiens, UniProt Q9Y2T6); experiment: GPR55 agonists via beta-arrestin recruitment, primary screen, imaging, U2OS cells, beta-arrestin-GFP redistribution (AID 1961); assay type: functional
# Sequence of G-protein coupled receptor 55 (Q9Y2T6 whole entry): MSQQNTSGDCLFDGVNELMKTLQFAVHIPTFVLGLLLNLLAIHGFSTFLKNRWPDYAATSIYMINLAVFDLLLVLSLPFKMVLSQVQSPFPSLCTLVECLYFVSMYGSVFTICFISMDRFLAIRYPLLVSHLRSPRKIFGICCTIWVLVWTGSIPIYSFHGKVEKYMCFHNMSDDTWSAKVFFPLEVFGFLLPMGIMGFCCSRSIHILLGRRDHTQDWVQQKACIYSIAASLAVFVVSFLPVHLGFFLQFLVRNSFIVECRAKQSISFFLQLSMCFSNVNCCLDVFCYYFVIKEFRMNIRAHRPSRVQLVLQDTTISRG
# Sequence of DNA dC->dU-editing enzyme APOBEC-3G (Q9HC16 whole entry): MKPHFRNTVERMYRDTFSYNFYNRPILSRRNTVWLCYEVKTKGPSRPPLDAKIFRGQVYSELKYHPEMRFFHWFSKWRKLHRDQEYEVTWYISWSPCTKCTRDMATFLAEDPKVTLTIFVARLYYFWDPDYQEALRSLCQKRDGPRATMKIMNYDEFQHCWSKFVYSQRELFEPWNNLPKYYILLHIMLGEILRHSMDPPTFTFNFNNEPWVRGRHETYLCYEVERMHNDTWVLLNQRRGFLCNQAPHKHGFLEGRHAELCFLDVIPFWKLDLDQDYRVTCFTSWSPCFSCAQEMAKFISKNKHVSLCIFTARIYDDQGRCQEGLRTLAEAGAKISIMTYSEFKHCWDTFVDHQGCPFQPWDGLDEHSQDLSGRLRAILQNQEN
smiles,measurement,setting,value
Sc1nccn1-c1ccc(Cl)cc1,IC50,[1],16.8 µM (active)
same,IC50,[2],> 100 µM (inactive)
C[n+]1c2cc(N)ccc2cc2ccc(N)cc21 [EUFLAVINE],CC50,[3],11.6 µM (active)
same,AC50,HeLa,14.7 µM (active)
same,IC50,HEK293,> 89.2 µM (inactive)
same,EC50,Insulin-degrading enzyme [4],> 54.7 µM (inactive)
same,EC50,Insulin-degrading enzyme [5],> 54.7 µM (inactive)
same,IC50,[6],78.3 µM (active)
same,AC50,ORF 73,0.415 µM (active)
CCn1c(S)nnc1-c1cccc(Br)c1,IC50,[1],4.37 µM (active)
same,IC50,[2],> 100 µM (inactive)
same,IC50,[7],> 122 µM (inactive)
CCn1nnc(NC(=O)c2ccc([N+](=O)[O-])o2)n1,CC50,[8],38.5 µM (active)
same,CC50,[9],> 20 µM (active)
same,IC50,[10],61.7 µM (inactive)
same,EC50,[11],0.179 µM (active)
same,CC50,[12],4.8 µM (active)
same,IC50,Exodeoxyribonuclease V,> 118 µM (inactive)
same,EC50,[13],> 60 µM (inconclusive)
O=C(Oc1ccccc1/C=C\C(=O)c1cc2ccccc2o1)c1ccccc1,EC50,[14],15.4 µM (inactive)
